Values of other authors, collected in patent US6716459B2, “Composition for inhibiting increase of blood sugar level or lowering blood sugar level” (priority 1998, dated 2004).

System: Ehrlich Ascites Tumour Cells
Details: in vitro, Chem. Pharm. Bull. 41(12) 2129-2131 (1993)

C[C@H]1[C@H](C)CC[C@]2(C(=O)O)CC[C@]3(C)C(=CC[C@@H]4[C@@]5(C)C[C@@H](O)[C@H](O)C(C)(C)[C@@H]5CC[C@]43C)[C@H]12 [corosolic acid]
activity on the mobility of grape sugar: activates the mobility of grape sugar
